Data on one compound can be found in patent US5786447A, “Opioid peptide analogs” (Astra AB, priority 1994, dated 1998).

The structures appear in SMILES notation. Residues, ends and D or L forms follow the SMILES beside them.

Assay [1] has as its target T1, μ opioid receptor (Rattus norvegicus, UniProt P33535).
T1 construct: from tissue; host or cells: rat brain membranes (cerebellum removed), Sprague-Dawley
In words: μ opioid receptor binding, displacement of [3H]DAMGO from rat brain membranes. As to conditions: [3H]DAMGO 0.7 nM, Cheng-Prusoff, means of three determinations ± SEM. An excerpt: (§1) In the case of κ-ligands guinea pig brain homogenates were used, since the relative proportion of κ-binding sites is higher in guinea pig brain than in rat brain. The experimental procedure being used in our laboratory represents a modified version of the binding assay described by Paternak et al. (Mol. Pharmacol. 11 340-351, (1975)). Male Sprague-Dawley rats (300-350 g) from the Canadian Breeding Laboratories were decapitated and after removal of the cerebellum the brains were homogenized in 30 volumes of ice-cold standard buffer (50 mM Tris-HCl, pH 7.7). After centrifugation at 30,000×g for 30 min at 4° C. the membranes were reconstituted in the original volume of standard buffer and incubated for 30 min at 37° C. (to release bound endogenous ligands). […] The incubation was terminated by filtration through Whatman GF/B filters under vacuum at 4° C. Following two washings with 5 ml portions of ice-cold standard buffer the filters were transferred to scintillation vials and treated with 1 ml Protosol (New England Nuclear) for 30 min prior to the addition of 0.5 ml acetic acid and 10 ml Aquasol (New England Nuclear). After shaking for 30 min the vials were counted at an efficiency of 40-45%. All experiments were performed in duplicates and repeated at least three times. Specific binding of each of the three radioglands was defmed by performing incubations in the presence of cold DAMGO, DSLET and U69,563, respectively, at a concentration of 1 micromolar. Values of half-maximal inhibition (IC50) of specific binding were obtained graphically from semilogarithmic plots. From the measured IC50-values, binding inhibition constants (Ki) were then calculated based on Cheng and Prussoff's equation (Biochem. Pharmacol. 22, 3099-3102 (1973)). Ratios of the Ki -values in the μ-, δ- and κ-representative bindning assays are a measure of the receptor selectivity of the compound under investigation (e.g. Ki^δ/ Ki^μ indicated the selectivity for μ-receptors versus δ-receptors).
(Loss of bound radioactivity is the signal in a displacement assay; it reports binding, not function.)

The target of assay [2] is T2, δ opioid receptors (Mus musculus, UniProt P32300).
T2 construct: Bioassays Using Isolated Organ Preparations; from tissue; host or cells: isolated mouse vas deferens
In words: MVD assay: inhibition of electrically evoked contractions of the mouse vas deferens (δ antagonist Ke). The assay is classed as cell-based. As to conditions: means of 3-8 determinations ± SEM. As for the experimental part:
(§2) a) Bioassays based on inhibition of electrically evoked contractions of the mouse vas deferens (MVD) and of the guinea pig ileum (GPI). In the GPI assay the opioid effect is primarily mediated by μ opioid receptors, whereas in the MVD assay the inhibition of the contractions is mostly due to interaction with δ opioid receptors.
(§3) The GPI and MVD bioassays were carried out as reported in P. W. Schiller et al., Biochem. Biophys. Res. Commun 85, 1332-1338 (1978) and J. Di Maio et al., J. Med. Chem. 25, 1432-1438 (1982). A log dose-response curve was determined with [Leu^5 ] enkephalin as standard for each ileum and vas preparation, and IC50 values of the compounds being tested were normalized according to A. A. Waterfield et al., Eur. J. Pharmacol. 58, 11-18 (1979). Ke values for the cyclic β-casomorphin analogs with mixed μ agonist/δ antagonist properties (δ antagonist effect) were determined from the ratio of IC50 values (DR) obtained in the presence and absence of a fixed antagonist concentration (a) (Ke =a/(DR-1)) H. W. Kosterlitz & A. J. Watt, Br. J. Pharmacol. 33, 266-276 (1968). These determinations were made with the MVD assay, using three different δ-selective agonists ([Leu^5 ]enkephalin, DPDPE and [D-Ala^2]deltorphin I].

For assay [3], the target named is T3, δ opioid receptor (Rattus norvegicus, UniProt P33533).
T3 construct: from tissue; host or cells: rat brain membranes (cerebellum removed), Sprague-Dawley
In words: δ opioid receptor binding, displacement of δ-selective radioligand from rat brain membranes.
Excerpt: as §1

Assay [4] concerns the target μ opioid receptors (Cavia porcellus, UniProt P97266). Nature of the assay: GPI assay: inhibition of electrically evoked contractions of the guinea pig ileum. The class given is cell-based. Conditions: means of 3-6 determinations ± SEM, normalized to [Leu5]enkephalin standard, read-out: IC50 in the GPI assay (agonist potency). As for the experimental part: as §2, §3

T2 sequence (P32300 whole entry): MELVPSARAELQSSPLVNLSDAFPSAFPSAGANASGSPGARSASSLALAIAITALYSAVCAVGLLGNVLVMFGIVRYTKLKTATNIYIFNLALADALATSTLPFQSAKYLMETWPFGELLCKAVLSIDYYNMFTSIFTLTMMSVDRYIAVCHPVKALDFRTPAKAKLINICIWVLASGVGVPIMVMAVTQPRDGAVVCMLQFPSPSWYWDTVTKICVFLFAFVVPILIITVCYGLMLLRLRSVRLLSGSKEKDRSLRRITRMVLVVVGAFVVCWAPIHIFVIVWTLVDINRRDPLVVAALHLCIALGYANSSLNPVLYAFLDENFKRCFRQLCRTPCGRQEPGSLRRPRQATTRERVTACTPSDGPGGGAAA
T3 sequence (P33533 whole entry): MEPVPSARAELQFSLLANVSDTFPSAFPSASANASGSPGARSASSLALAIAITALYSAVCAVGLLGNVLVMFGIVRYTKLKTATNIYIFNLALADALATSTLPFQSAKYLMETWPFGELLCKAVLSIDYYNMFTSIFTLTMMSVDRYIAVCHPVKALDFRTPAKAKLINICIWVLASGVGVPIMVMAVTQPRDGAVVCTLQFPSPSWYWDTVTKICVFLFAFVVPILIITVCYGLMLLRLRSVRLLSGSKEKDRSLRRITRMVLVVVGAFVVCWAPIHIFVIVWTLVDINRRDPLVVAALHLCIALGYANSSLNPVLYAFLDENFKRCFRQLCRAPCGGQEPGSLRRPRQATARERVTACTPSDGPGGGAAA
T1 sequence (P33535 whole entry): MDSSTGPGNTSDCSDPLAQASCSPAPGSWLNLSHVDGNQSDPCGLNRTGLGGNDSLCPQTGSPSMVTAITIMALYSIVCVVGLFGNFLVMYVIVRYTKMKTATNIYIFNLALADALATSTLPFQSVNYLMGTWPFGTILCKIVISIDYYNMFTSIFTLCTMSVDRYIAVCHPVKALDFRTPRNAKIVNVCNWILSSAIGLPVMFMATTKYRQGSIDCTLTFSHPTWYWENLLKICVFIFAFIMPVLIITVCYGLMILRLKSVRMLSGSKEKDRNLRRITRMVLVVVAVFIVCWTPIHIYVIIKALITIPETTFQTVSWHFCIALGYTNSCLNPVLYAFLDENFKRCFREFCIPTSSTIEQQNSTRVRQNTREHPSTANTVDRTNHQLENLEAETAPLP
Sequence of μ opioid receptors (P97266 whole entry, looked up): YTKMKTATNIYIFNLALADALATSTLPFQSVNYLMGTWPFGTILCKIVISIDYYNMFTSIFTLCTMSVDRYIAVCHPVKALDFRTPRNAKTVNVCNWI

By Ki is commonly meant the dissociation constant of the complex between target and ligand, obtained from inhibition or displacement. Lower therefore signals a stronger hold on the target. The term IC50 denotes the point on the concentration scale where inhibition reaches its midpoint. On to `N[C@@H](Cc1ccc(O)cc1)C(=O)N[C@@H]1CCCNC(=O)CNC(=O)[C@H]2CCCN2C(=O)[C@H](Cc2ccc3ccccc3c2)NC1=O` [H-Tyr-c[-D-Orn-2-Nal-D-Pro-Gly-], reference compound] (HELM PEPTIDE1{Y.[O=C([C@@H](CCCN[*:3])N[*:1])[*:2]].[O=C([C@H](Cc1ccc2ccccc2c1)N[*:1])[*:2]].[dP].G}$PEPTIDE1,PEPTIDE1,2:R3-5:R2$$$V2.0), for which the inhibition constant Ki in assay [1] stood at 5.89 ± 1.6 nM; in assay [3] (δ-selective radioligand 1.0 nM, Cheng-Prusoff, means of three determinations ± SEM) it was 17.2 ± 4.9 nM. In assay [2] (δ agonist DPDPE), the “Ke in the MVD assay, antagonist potency against DPDPE” value is listed as 233 ± 28. For the same compound, the “Ke in the MVD assay, antagonist potency against [D-Ala2]deltorphin I” value in assay [2] (δ agonist [D-Ala2]deltorphin I) stood at 202 ± 24. Further, the “Ke in the MVD assay, antagonist potency against [Leu5]enkephalin” value in assay [2] (δ agonist [Leu5]enkephalin) came out at 268 ± 22. Further, in assay [3] (ratio of binding constants), the “Ki^δ/Ki^μ (selectivity for μ versus δ receptors)” value is on record as 2.92. For the same compound, in assay [4], the IC50 turned out to be 384 nM.
